From paper PMC4207410, “Clicked Cinnamic/Caffeic Esters and Amides as Radical Scavengers and 5-Lipoxygenase Inhibitors” (International Journal of Medicinal Chemistry, 2014)

How the values were obtained:
[1] = Antiradical activity assay (DPPH radical scavenging); conditions: DPPH in ethanol, 30 min in the dark at room temperature, absorbance 520 nm; mean [SD] of 2 experiments
Description: The radical scavenging activity of test compounds was measured as previously described using 2,2-diphenyl-1-picrylhydrazyl (DPPH) as a stable radical with slight modifications. Particular care was taken in the preparation of the control (DPPH reagent + ethanol as a diluent without test compounds). Controls with O.D. of 0.350-0.360 at 520 nm were deemed as acceptable to avoid variations in IC50 calculations. 1 mL of DPPH in ethanol ([…]) was mixed with 1 mL of the test compounds at the indicated concentrations or their diluent (ethanol). Each mixture was then shaken vigorously and held in the dark for 30 min at room temperature. The absorbance of DPPH at 520 nm was then measured. The radical scavenging activity was expressed in terms of % inhibition of DPPH absorbance: (1) % Inhibition=[(Acontrol−Atest)/(Acontrol)] ×100, where A control is the absorbance of the control (DPPH solution without test compound) and A test is the absorbance of the test sample (DPPH solution plus compound). Data are expressed as means ± SD of 2 independent experiments, each performed in triplicate (Table 1). IC50 values were calculated from a sigmoidal concentration-response curve fitting model with a variable slope on GraphPad Prism 5 software (GraphPad software, San Diego, California).
Radical scavenging activities of analogous cinnamoyl esters 8a–h, cinnamoyl amides 9a–h, caffeoyl esters 15a–h, and caffeoyl amides 16a–h were assayed using 2,2-diphenyl-1-picrylhydrazyl (DPPH) as a stable radical and are expressed as IC50 concentrations in Table 1.

[2] = biological target: T1, 5-LO (Homo sapiens, UniProt P09917); experiment: 5-LO products biosynthesis assay in thapsigargin-stimulated human PMNL; assay type: cell-based; set-up: 5-LO is highly expressed in PMNL; endogenous in cells; host or cells: human PMNL from peripheral blood; conditions: for potency relative to Zileuton (1) in human PMNL: comparison of IC50 values, thapsigargin-stimulated human PMNL; for IC50: read-out: Human PMNL IC50 (μM) [SD]; for 5-LO inhibition in stimulated human PMNL (in words): 1 μM
T1 sequence (P09917 1-674): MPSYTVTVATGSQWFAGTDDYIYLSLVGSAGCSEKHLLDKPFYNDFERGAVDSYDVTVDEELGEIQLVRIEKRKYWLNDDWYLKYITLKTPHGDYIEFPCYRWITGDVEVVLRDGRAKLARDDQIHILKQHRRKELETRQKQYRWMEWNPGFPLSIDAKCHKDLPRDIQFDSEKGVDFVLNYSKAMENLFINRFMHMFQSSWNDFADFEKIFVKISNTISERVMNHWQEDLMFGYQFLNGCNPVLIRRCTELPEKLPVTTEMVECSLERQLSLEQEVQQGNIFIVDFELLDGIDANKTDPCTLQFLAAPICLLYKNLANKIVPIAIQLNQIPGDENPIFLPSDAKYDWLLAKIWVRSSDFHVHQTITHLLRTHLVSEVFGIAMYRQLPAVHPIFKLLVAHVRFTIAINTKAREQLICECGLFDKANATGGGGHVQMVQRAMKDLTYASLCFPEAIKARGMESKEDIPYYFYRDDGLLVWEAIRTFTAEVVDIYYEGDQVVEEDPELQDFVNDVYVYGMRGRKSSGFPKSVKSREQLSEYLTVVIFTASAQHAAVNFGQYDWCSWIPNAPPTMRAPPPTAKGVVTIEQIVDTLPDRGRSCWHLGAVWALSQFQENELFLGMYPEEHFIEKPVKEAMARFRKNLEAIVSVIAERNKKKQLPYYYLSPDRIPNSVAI
Description: Human PMNL were prepared from peripheral blood as described and were suspended in HBSS containing 1.6 mM CaCl2 (10^7 cells/mL) and preincubated with compounds for 5 min at 37°C in the presence of 1 U/mL of adenosine deaminase (Sigma-Aldrich, Oakville, ON, Canada). Cells were then stimulated for 15 min at 37°C with 1 μM thapsigargin (Sigma-Aldrich). Reactions were stopped by the addition of 0.5 volume of cold MeOH : CH3CN (1 : 1) and 50 ng of PGB2 as internal standard and samples were stored at −20°C until processing on octadecyl (C18) columns and RP-HPLC analysis as indicated above. Data are expressed as means ± SEM of 3 independent experiments, each performed in duplicate (Figures 4 and 5).
5-LO is highly expressed in PMNL and these cells are important producers of LTB4 [28, 32].

[3] = biological target: T1, 5-LO; experiment: 5-LO products biosynthesis assay in whole HEK293 cells stably transfected with 5-LO and FLAP; assay type: cell-based; set-up: expressed in transfected cells; conditions: for potency relative to Zileuton (1) in HEK293 cells: comparison of IC50 values
Text: HEK293 cells were cotransfected with a pcDNA3.1 vector expressing 5-LO and a pBUDCE4.1 vector expressing 5-LO activating protein (FLAP) using Polyfect reagent (QIAGEN, Mississauga, ON, Canada) according to the manufacturer's protocol. Stable transfections of HEK293 cells were obtained following cell culture in the presence of Geneticin and Zeocin (Invitrogen, Burlington, ON, Canada). The resulting stable double transfectants were propagated in culture and aliquots were frozen. Once thawed for a series of experiments, each aliquot of cells is cultured for a maximum of 6 weeks before being discarded.
For cell stimulation of 5-LO products, transfected HEK293 cells were collected following trypsinization, washed and the cell pellet was resuspended in Hank's balanced salt solution (HBSS) (Lonza, Walkersville, MD) containing 1.6 mM CaCl2 at a concentration of 5 × 10^5 cells mL^−1. Cells were preincubated with each compound at the indicated concentration for 5 min at 37°C. Cells were then stimulated for 15 minutes at 37°C with the addition of 10 μM calcium ionophore A23187 (Sigma-Aldrich, Oakville, ON, Canada) and 10 μM arachidonic acid (Cayman Chemical, Ann Arbor, MI). Stimulations were stopped and processed on RP-HPLC as described previously. Data are expressed as means ± SEM of 3 independent experiments, each performed in duplicate (Figures 2 and 3).

[4] = biological target: T1, 5-LO; set-up: expressed in transfected cells; method as in PMID 19152786; conditions: 10 μM; cited from earlier work

Cc1ccc(-c2cn(CCOC(=O)/C=C/c3ccc(O)c(O)c3)nn2)cc1 [15f]
IC50 [1]: 9.01 µM
potency relative to Zileuton (1) in human PMNL [2]: equivalent to Zileuton
IC50 [2]: 3.1 µM
5-LO inhibition in stimulated human PMNL (in words) [2]: roughly equipotent with Zileuton
potency relative to Zileuton (1) in HEK293 cells [3]: four times more potent than Zileuton
melting point: 181 to 182 °C (dec.)

O=C(/C=C/c1ccc(O)c(O)c1)OCCn1cc(-c2ccc(F)cc2)nn1 [15g]
IC50 [1]: 9.4 µM
potency relative to Zileuton (1) in human PMNL [2]: equivalent to Zileuton
IC50 [2]: 3.3 µM
potency relative to Zileuton (1) in HEK293 cells [3]: four times more potent than Zileuton
melting point: 238 to 240 °C (dec.)

O=C(/C=C/c1ccccc1)OCCn1cc(COC(=O)/C=C/c2ccc(O)c(O)c2)nn1 [compound 4, reference compound]
5-LO inhibition in whole cells [4]: near complete 5-LO inhibition
IC50 [1]: 13.4 µM
5-LO inhibition in stimulated human PMNL (in words) [2]: roughly equipotent with Zileuton
5-LO inhibition in whole HEK293 cells (in words) ([3]; whole HEK293 cells, 1 μM): not significantly different than the control
